For this test, the target named is T1, human leukocyte 5-lipoxygenase (Homo sapiens, UniProt P09917).
T1 construct: endogenous in cells; host or cells: leukocytes from fresh human blood
T1 sequence (P09917 1-674): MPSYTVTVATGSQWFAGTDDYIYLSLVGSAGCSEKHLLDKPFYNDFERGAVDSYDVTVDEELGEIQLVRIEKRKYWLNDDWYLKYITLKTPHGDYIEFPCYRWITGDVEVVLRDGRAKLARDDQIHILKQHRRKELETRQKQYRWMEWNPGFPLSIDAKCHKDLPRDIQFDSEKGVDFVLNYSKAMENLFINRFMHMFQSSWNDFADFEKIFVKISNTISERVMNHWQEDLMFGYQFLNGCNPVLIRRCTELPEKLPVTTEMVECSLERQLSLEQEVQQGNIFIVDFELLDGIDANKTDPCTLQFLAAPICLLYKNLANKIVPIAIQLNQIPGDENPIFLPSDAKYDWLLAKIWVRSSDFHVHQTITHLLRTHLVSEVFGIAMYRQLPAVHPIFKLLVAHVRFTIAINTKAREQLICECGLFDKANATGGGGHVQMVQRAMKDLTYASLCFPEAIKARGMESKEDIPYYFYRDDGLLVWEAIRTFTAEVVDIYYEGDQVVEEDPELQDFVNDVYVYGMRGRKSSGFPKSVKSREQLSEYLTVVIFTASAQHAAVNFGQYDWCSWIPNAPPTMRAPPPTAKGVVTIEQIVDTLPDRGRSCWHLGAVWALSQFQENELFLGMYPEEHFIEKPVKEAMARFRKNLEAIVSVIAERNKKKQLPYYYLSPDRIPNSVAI
Put plainly: 5-Lipoxygenase assay in human leukocytes, formation of 5-HETE (5LOA; 5LOA1 or 5LOA2 not specified). Format: cell-based. From the text: To Evaluate the Effect of Each Compounds as a 5-Lipoxygenase Inhibitor in Comparison to Standard Reference Agents in Human Leukocytes (5LOAl)
The purpose of this assay is to evaluate the activity of each compound as an inhibitor of human leukocyte 5-lipoxygenase.
Arachidonic acid and calcium ionophore A23l87 are obtained from Sigma (St. Louis, Mo.). Silica gel plates, GF are obtained from Analtech (Newark, Del.). Arachidonic acid, (1-^14 C) and 5-HETE (^3 H), 5 (S)-hydroxy-6-trans, 8,11,14-cis eicosatetraenoic acid, are obtained from New England Nuclear (Boston, Mass.). Six percent Dextran-70 in 0.9% NaCl is obtained from Cutter Labs (Berkeley, Calif.).
Fresh blood from normal adult men who had not received any drugs for at least the previous five days is obtained by the Community Research Clinic (WL/PD) using venipuncture and collected into heparinized vacuotainer tubes. To every 100 ml of pooled blood is added 25 ml of dextran solution (6% dextran -70 in 0.9% sodium chloride containing 3% dextrose) and this is mixed gently in a plastic cylinder. The mixture is left to stand at room temperature for at least 90 minutes. The upper layer which is rich in leukocytes and platelets is then carefully decanted into 50 ml plastic tubes and centrifuged at about 100×g for eight minutes in an IEC centrifuge and rotor number 269 (about 600 rpm). The supernatant fluid is discarded and the pellet is resuspended in 10 ml of 0.87% ammonium chloride for exactly two minutes. This procedure is to lyse completely contaminating red blood cells. Leukocytes are then separated by centrifugation for ten minutes. The pellet is washed three times by suspension in 20 ml PBS (sodium chloride, 7.1 g; Na2 HPO4, 1.15 g; KH2 PO4, 0.2 g, and KCl, 0.2 g/L) and centrifuged as before. The final pellet is suspended in PBS containing 0.87 mM CaCl2. Viability of the cells is then checked using trypan blue exclusion method and is found to be over 90%.
Leukocyte cells in suspension (0.98 ml) are incubated with or without test compounds for five minutes at 37° C. in a shaking water bath. At this time a 17 μl mixture is prepared per 1 ml of cell suspension: 100 mM arachidonic acid, 1 μl, 0.05 μCi ^14 C-arachidonic acid in 5 .rho.l; 1 mM calcium ionophore A23187, 10 μl (1). This mixture is added and the incubation continued for five minutes. The reaction is stopped by adding four volumes of absolute ethanol and the mixture is kept in ice for 30 minutes. The floculated precipitate is separated by centrifugation at about 37,000×g for 20 minutes (Beckman Instruments rotor number 40). The alcohol extract is taken to dryness under a stream of nitrogen and the residue is dissolved in 100-200 μl absolute ethanol. At the time any turbidity is removed by centrifugation. An aliquot (25-50 μl) is applied onto 20×20 cm silica gel TLC plate and developed using the following solvent system: diethyl ether, petroleum ether (2040° C.), acetic acid (50:50: 1 v/v). Zones of 1 cm apart are scraped from the TLC plate and transferred to mini-vials. Methanol (0.5 ml) is added to dissolve the radioactivity adsorbed to the silica gel and scintillation fluid (H.P., Beckman), 5 ml is then added and vials are counted in a liquid scintillation counter. A sample of ^3 H-5-HETE is applied and used for the identification of the formed 5-HETE.
Total radioactivity in the test as well as the control samples are normalized and the amount of 5-HETE present is calculated accordingly.
IC50 values are defined as the concentrations of test agents which caused a 50% inhibition of the formation of 5-HETE as compared to control and are determined by inspection of the concentration-response curves.
The formation of 5-HETE in human leukocytes is considered a measure of 5-lipoxygenase activity. The protocol is described in the following.
Fresh heparinized or EDTA treated human blood is mixed with 6% dextran-3% dextrose in isotonic saline in the ratio 0.25 ml dextran solution per 1.0 ml blood. […]

SMILES strings stand for the structures.

Turning to `COc1c(C(=O)Nc2ccc(CCc3ccc(Cl)c(Cl)c3)cc2)sc2ccccc12` [Example 147, Benzo[b]thiophene-2-carboxamide, N-[4-[2-(3,4-dichlorophenyl)ethyl]phenyl]-3-methoxy], the “5LOA, % Inhibition” value runs as follows: (2.00 E -5 M) 13.8%; (5.00 E -6 M) 5.5%.

Regarding `O=C(Nc1ccc(CCc2ccc(Cl)c(Cl)c2)cc1)C(=O)c1sc2ccccc2c1O` [Example 136, Benzo[b]thiophene-2-acetamide, N-[4-[2-(3,4-dichlorophenyl)ethyl]phenyl]-3-hydroxy-α-oxo], the “5LOA, % Inhibition” value reads like this: (2.00 E -5 M) “+2.2%”; (5.00 E -6 M) “+1.4%”.

The values are drawn from patent US4921871A, “Enolamides, pharmaceutical compositions and methods of use thereof for treating inflammation” (Warner-Lambert Company, priority 1987, dated 1990).
